{"source": "patent US4163799A", "about": "“Psychostimulant compounds” (Union Chimique Continentale U.C.C., priority 1975, dated 1979)", "key": {"[1]": {"experiment": "Modification of hypnotic effects (pentobarbital), mouse", "assay_type": "in vivo, mouse (male, Swiss NMRI)", "settings": "16, 32, 64 mg/kg orally, with or 60 minutes before pentobarbital", "description": "(§1) All the experiments described below were carried out on male rats weighing between 170 and 220 g (Wistar AF strain) and male mice weighing between 18 and 23 g (Swiss NMRI strain), unless indicated to the contrary. All the experiments were conducted in a constant-temperature laboratory (22±1° C.). […] Unless indicated to the contrary 10 animals per batch were always used."}, "[2]": {"experiment": "Potentialization of apomorphine", "assay_type": "in vivo", "settings": "compared with caffeine; no method described"}, "[3]": {"experiment": "Motor activity in the mouse (photoelectric cell actimeter)", "assay_type": "in vivo, mouse (male, Swiss NMRI)", "description": "as §1\nThe motor activity was determined with the aid of photoelectric cell actimeters (Boissier and Simon, Arch. int. Pharmacodyn. 1965, 158, 212-221). Twelve animals per batch were always used as a minimum."}, "[4]": {"settings": "64 mg/kg IP, ** significant at 0.005"}}, "note": "Structures can show the parent of a compound that is named as a salt.", "data": [{"smiles": "CC(O)CC(c1ccccc1)C(C(=O)O)c1ccccc1", "note": "(stereo not drawn) [NaAHDH, Sodium Salt of 5-Hydroxy-2,3-Diphenyl-Hexanoic Acid]", "values": [{"measurement": "time taken to fall asleep or length of sleep", "setting": "[1]", "value": "no modification to the time taken to fall asleep or the length of sleep"}, {"measurement": "potentialization of apomorphine", "setting": "[2]", "value": "does not potentialize apomorphine"}, {"measurement": "number of beams interrupted, 30 + 5 min", "setting": "[3]; 16 mg/kg IP", "value": 44}, {"measurement": "number of beams interrupted, 30 + 10 min", "setting": "[3]; 16 mg/kg IP", "value": 90}, {"measurement": "number of beams interrupted, 30 + 15 min", "setting": "[3]; 16 mg/kg IP", "value": 133}, {"measurement": "number of beams interrupted, 30 + 20 min", "setting": "[3]; 16 mg/kg IP", "value": 163}, {"measurement": "number of beams interrupted, 30 + 25 min", "setting": "[3]; 16 mg/kg IP", "value": 195}, {"measurement": "number of beams interrupted, 30 + 30 min", "setting": "[3]; 16 mg/kg IP, * significant at 0.05", "value": "214 ± 28"}, {"measurement": "number of beams interrupted, 30 min", "setting": "[3]; 16 mg/kg IP", "value": "376 ± 31"}, {"measurement": "number of beams interrupted, 30 + 5 min", "setting": "[3]; 32 mg/kg IP", "value": 65}, {"measurement": "number of beams interrupted, 30 + 10 min", "setting": "[3]; 32 mg/kg IP", "value": 118}, {"measurement": "number of beams interrupted, 30 + 15 min", "setting": "[3]; 32 mg/kg IP", "value": 183}, {"measurement": "number of beams interrupted, 30 + 20 min", "setting": "[3]; 32 mg/kg IP", "value": 242}, {"measurement": "number of beams interrupted, 30 + 25 min", "setting": "[3]; 32 mg/kg IP", "value": 285}, {"measurement": "number of beams interrupted, 30 + 30 min", "setting": "[3]; 32 mg/kg IP, test t 2,395", "value": "325 ± 26"}, {"measurement": "number of beams interrupted, 30 min", "setting": "[3]; 32 mg/kg IP", "value": "450 ± 39"}, {"measurement": "number of beams interrupted, 30 + 5 min", "setting": "[3]; 64 mg/kg IP", "value": 90}, {"measurement": "number of beams interrupted, 30 + 10 min", "setting": "[3]; 64 mg/kg IP", "value": 195}, {"measurement": "number of beams interrupted, 30 + 15 min", "setting": "[3]; 64 mg/kg IP", "value": 297}, {"measurement": "number of beams interrupted, 30 + 20 min", "setting": "[3]; 64 mg/kg IP", "value": 396}, {"measurement": "number of beams interrupted, 30 + 25 min", "setting": "[3]; 64 mg/kg IP", "value": 429}, {"measurement": "number of beams interrupted, 30 + 30 min", "setting": "[3]; [4]", "value": "558 ± 56"}, {"measurement": "number of beams interrupted, 30 min", "setting": "[3]; [4]", "value": "580 ± 47"}, {"measurement": "motor activity", "setting": "[3]; 32 and 64 mg/kg ip, significant for the first 30 minutes, regular and constant up to 60th minute", "value": "increase in motor activity"}]}]}
